Target: T1, mGlyT-1b (Mus musculus, UniProt P28571)
T1 construct: host or cells: Flp-in-CHO
T1 sequence (P28571 1-651 isoform P28571-2): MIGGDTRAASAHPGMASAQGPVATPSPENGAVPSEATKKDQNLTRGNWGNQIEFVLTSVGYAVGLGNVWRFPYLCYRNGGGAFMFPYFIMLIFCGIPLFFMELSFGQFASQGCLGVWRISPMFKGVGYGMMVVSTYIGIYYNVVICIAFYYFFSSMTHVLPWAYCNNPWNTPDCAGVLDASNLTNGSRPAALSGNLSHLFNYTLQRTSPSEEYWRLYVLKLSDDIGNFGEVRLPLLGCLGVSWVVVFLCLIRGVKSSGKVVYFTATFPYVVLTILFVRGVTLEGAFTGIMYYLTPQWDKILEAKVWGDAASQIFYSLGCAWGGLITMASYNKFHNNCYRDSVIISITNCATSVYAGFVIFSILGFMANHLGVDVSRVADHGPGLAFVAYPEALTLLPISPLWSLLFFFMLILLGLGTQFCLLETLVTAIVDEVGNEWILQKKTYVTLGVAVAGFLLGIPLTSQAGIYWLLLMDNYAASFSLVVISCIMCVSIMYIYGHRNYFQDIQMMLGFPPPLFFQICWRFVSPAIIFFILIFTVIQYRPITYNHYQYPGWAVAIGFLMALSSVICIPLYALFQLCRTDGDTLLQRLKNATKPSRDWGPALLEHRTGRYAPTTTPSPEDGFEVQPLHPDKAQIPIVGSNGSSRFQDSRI
Experiment: Glycine Uptake Inhibition Assay (mGlyT-1b)
Type: cell-based
Description: DMEM complete medium: Nutrient mixture F-12 (Gibco Life-technologies), fetal bovine serum (FBS) 5%, (Gibco life technologies), Penicillin/Streptomycin 1% (Gibco life technologies), Hygromycin 0.6 mg/ml (Gibco life technologies), Glutamine 1 mM Gibco life technologies)
Uptake buffer (UB): 150 mM NaCl, 10 mM Hepes-Tris, pH 7.4, 1 mM CaCl2, 2.5 mM KCl, 2.5 mM MgSO4, 10 mM (+) D-glucose.
Flp-in™-CHO (Invitrogen Cat n° R758-07) cells stably transfected with mGlyT1b cDNA.
Glycine Uptake Inhibition Assay (mGlyT-1b)
On day 1 mammalian cells, (Flp-in™-CHO), transfected with mGlyT-1b cDNA, were plated at the density of 40,000 cells/well in complete F-12 medium, without hygromycin in 96-well culture plates. On day 2, the medium was aspirated and the cells were washed twice with uptake buffer (UB). The cells were then incubated for 20 min at 22° C. with either (i) no potential competitor, (ii) 10 mM non-radioactive glycine, (iii) a concentration of a potential inhibitor. A range of concentrations of the potential inhibitor was used to generate data for calculating the concentration of inhibitor resulting in 50% of the effect (e.g. IC50, the concentration of the competitor inhibiting glycine uptake of 50%). A solution was then immediately added containing [^3H]-glycine 60 nM (11-16 Ci/mmol) and 25 μM non-radioactive glycine. The plates were incubated with gentle shaking and the reaction was stopped by aspiration of the mixture and washing (three times) with ice-cold UB. The cells were lysed with scintillation liquid, shaken 3 hours and the radioactivity in the cells was counted using a scintillation counter.

Row | Structure (SMILES) | IC50
1 | CN(C)c1ccc(C(=O)N(CC(=O)Nc2ccc(Cl)c(Cl)c2)c2ccccc2)cc1 [Example 116, N-[(3,4-Dichloro-phenylcarbamoyl)-methyl]-4-dimethylamino-N-phenyl-benzamide] | 191 nM
2 | O=C(CN(Cc1ccccc1F)C(=O)c1ccc(N2CCOCC2)nc1)Nc1cccc(Cl)c1 [Example 119, N-[(3-Chloro-phenylcarbamoyl)-methyl]-N-(2-fluoro-benzyl)-6-morpholin-4-yl-nicotinamide] | 355 nM
3 | O=C(CN(Cc1ccccc1Cl)C(=O)c1cccc(F)c1)Nc1cccc(C(F)(F)F)c1 [Example 52, N-(2-Chloro-benzyl)-3-fluoro-N-[(3-trifluoromethyl-phenylcarbamoyl)-methyl]-benzamide] | 153 nM
4 | COc1ccc(C(=O)N(CC(=O)Nc2cccc(Cl)c2)Cc2ccsc2)cc1 [Example 10, N-[(3-Chloro-phenylcarbamoyl)-methyl]-4-methoxy-N-thiophen-3-ylmethyl-benzamide] | 285 nM
5 | O=C(CN(Cc1ccccc1Cl)C(=O)c1cc2ccccc2s1)Nc1cccc(F)c1 [Example 57, Benzo[b]thiophene-2-carboxylic acid (2-chloro-benzyl)-[(3-fluoro-phenylcarbamoyl)-methyl]-amide] | 88 nM
6 | O=C(CN(C(=O)c1ccc(C(F)(F)F)nc1)c1ccccc1)Nc1ccc(Cl)c(Cl)c1 [Example 37, N-[(3,4-Dichloro-phenylcarbamoyl)-methyl]-N-phenyl-6-trifluoromethyl-nicotinamide] | 154 nM
7 | COc1ccc(C(=O)N(CC(=O)Nc2cccc(C(F)(F)F)c2)c2ccccc2)cc1 [Example 27, 4-Methoxy-N-phenyl-N-[(3-trifluoromethyl-phenylcarbamoyl)-methyl]-benzamide] | 148 nM
8 | O=C(CN(Cc1ccccc1Cl)C(=O)c1ccc(OC(F)(F)F)cc1)Nc1cccc(C(F)(F)F)c1 [Example 54, #N!-(2-Chloro-benzyl)-4-trifluoromethoxy-#N!-[(3-trifluoromethyl-phenylcarbamoyl)-methyl]-benzamide] | 196 nM
9 | COc1ccc(C(=O)N(CC(=O)Nc2cccc(Cl)c2)Cc2cc(Cl)cc(Cl)c2)cc1 [Example 12, N-[(3-Chloro-phenylcarbamoyl)-methyl]-N-(3,5-dichloro-benzyl)-4-methoxy-benzamide] | 243 nM
10 | O=C(CN(C(=O)c1cc2ccccc2s1)c1ccccc1)Nc1ccc(Cl)c(Cl)c1 [Example 113, Benzo[b]thiophene-2-carboxylic acid [(3,4-dichloro-phenylcarbamoyl)-methyl]-phenyl-amide] | 150 nM
11 | O=C(CN(Cc1cccc(F)c1F)C(=O)c1cc2ccccc2s1)Nc1ccc(F)c(Cl)c1 [Example 80, Benzo[b]thiophene-2-carboxylic acid [(3-chloro-4-fluoro-phenylcarbamoyl)-methyl]-(2,3-difluoro-benzyl)-amide] | 66 nM
12 | COc1ccc(C(=O)N(CC(=O)Nc2ccc(C)c(Cl)c2)c2ccccc2)cc1 [Example 110, N-[(3-Chloro-4-methyl-phenylcarbamoyl)-methyl]-4-methoxy-N-phenyl-benzamide] | 369 nM
13 | O=C(CN(Cc1ccccc1Cl)C(=O)c1cc2ccccc2s1)Nc1ccc(F)c(Cl)c1 [Example 72, Benzo[b]thiophene-2-carboxylic acid (2-chloro-benzyl)-[(3-chloro-4-fluoro-phenylcarbamoyl)-methyl]-amide] | 205 nM
14 | N#Cc1ccc(C(=O)N(CC(=O)Nc2cccc(F)c2)Cc2ccccc2Cl)cc1 [Example 62, N-(2-Chloro-benzyl)-4-cyano-N-[(3-fluoro-phenylcarbamoyl)-methyl]-benzamide] | 357 nM
15 | O=C(CN(Cc1cc(F)cc(F)c1)C(=O)c1ccc(OC(F)(F)F)cc1)Nc1cccc(F)c1 [Example 65, N-(3,5-Difluoro-benzyl)-N-[(3-fluoro-phenylcarbamoyl)-methyl]-4-trifluoromethoxy-benzamide] | 278 nM
16 | O=C(CN(Cc1cc(F)cc(F)c1)C(=O)c1ccc(OC(F)(F)F)cc1)Nc1ccc(F)c(Cl)c1 [Example 90, N-[(3-Chloro-4-fluoro-phenylcarbamoyl)-methyl]-N-(3,5-difluoro-benzyl)-4-trifluoromethoxy-benzamide] | 288 nM
17 | O=C(CN(C(=O)c1ccccc1F)c1ccccc1)Nc1ccc(Cl)c(Cl)c1 [Example 39, N-[(3,4-Dichloro-phenylcarbamoyl)-methyl]-2-fluoro-N-phenyl-benzamide] | 291 nM
18 | O=C(CN(Cc1cc(F)cc(F)c1)C(=O)c1cc2ccccc2s1)Nc1cccc(F)c1 [Example 63, Benzo[b]thiophene-2-carboxylic acid (3,5-difluoro-benzyl)-[(3-fluoro-phenylcarbamoyl)-methyl]-amide] | 70 nM
19 | N#Cc1ccc(C(=O)N(CC(=O)Nc2ccc(F)c(Cl)c2)Cc2ccccc2Cl)cc1 [Example 77, N-(2-Chloro-benzyl)-N-[(3-chloro-4-fluoro-phenylcarbamoyl)-methyl]-4-cyano-benzamide] | 182 nM
20 | N#Cc1ccc(C(=O)N(CC(=O)Nc2ccc(F)c(Cl)c2)Cc2cccc(F)c2F)cc1 [Example 85, N-[(3-Chloro-4-fluoro-phenylcarbamoyl)-methyl]-4-cyano-N-(2,3-difluoro-benzyl)-benzamide] | 123 nM
21 | O=C(CN(Cc1ccccc1Cl)C(=O)c1ccc(OC(F)(F)F)cc1)Nc1ccc(F)c(Cl)c1 [Example 75, N-(2-Chloro-benzyl)-N-[(3-chloro-4-fluoro-phenylcarbamoyl)-methyl]-4-trifluoromethoxy-benzamide] | 259 nM

Results, then the molecule that gave them:

Row | IC50 | Structure (SMILES)
22 | 107 nM | O=C(CN(Cc1c(F)cccc1F)C(=O)c1ccc(OC(F)(F)F)cc1)Nc1ccc(F)c(Cl)c1 [Example 71, N-[(3-Chloro-4-fluoro-phenylcarbamoyl)-methyl]-N-(2,6-difluoro-benzyl)-4-trifluoromethoxy-benzamide]
23 | 25 nM | O=C(CN(Cc1ccccc1Cl)C(=O)c1ccc(Cl)cc1)Nc1cccc(Cl)c1 [Example 106, 4-Chloro-N-(2-chloro-benzyl)-N-[(3-chloro-phenylcarbamoyl)-methyl]-benzamide]
24 | 199 nM | N#Cc1ccc(C(=O)N(CC(=O)Nc2ccc(F)c(Cl)c2)Cc2c(F)cccc2F)cc1 [Example 88, N-[(3-Chloro-4-fluoro-phenylcarbamoyl)-methyl]-4-cyano-N-(2,6-difluoro-benzyl)-benzamide]
25 | 128 nM | O=C(CN(Cc1cccc(F)c1)C(=O)c1ccc(Cl)cc1)Nc1cccc(Cl)c1 [Example 8, 4-Chloro-N-[(3-chloro-phenylcarbamoyl)-methyl]-N-(3-fluoro-benzyl)-benzamide]
26 | 160 nM | O=C(CN(Cc1ccc(F)cc1F)C(=O)c1ccc(Cl)cc1)Nc1cccc(Cl)c1 [Example 5, 4-Chloro-N-[(3-chloro-phenylcarbamoyl)-methyl]-N-(2,4-difluoro-benzyl)-benzamide]
27 | 166 nM | O=C(CN(Cc1ccccc1Cl)C(=O)c1ccc(Cl)cc1)Nc1cccc(F)c1 [Example 59, 4-Chloro-N-(2-chloro-benzyl)-N-[(3-fluoro-phenylcarbamoyl)-methyl]-benzamide]
28 | 108 nM | O=C(CN(Cc1cccc(F)c1F)C(=O)c1ccc(Cl)cc1)Nc1ccc(F)c(Cl)c1 [Example 82, 4-Chloro-N-[(3-chloro-4-fluoro-phenylcarbamoyl)-methyl]-N-(2,3-difluoro-benzyl)-benzamide]
29 | 52 nM | O=C(CN(Cc1c(F)cccc1F)C(=O)c1ccc(Cl)cc1)Nc1cccc(Cl)c1 [Example 1, 4-Chloro-N-[(3-chloro-phenylcarbamoyl)-methyl]-N-(2,6-difluoro-benzyl)-benzamide]
30 | 182 nM | O=C(CN(Cc1ccccc1F)C(=O)c1ccc(Cl)nc1)Nc1cccc(Cl)c1 [Example 120, 6-Chloro-N-[(3-chloro-phenylcarbamoyl)-methyl]-N-(2-fluoro-benzyl)-nicotinamide]
31 | 192 nM | N#Cc1cccc(CN(CC(=O)Nc2cccc(Cl)c2)C(=O)c2ccc(Cl)cc2)c1 [Example 100, 4-Chloro-N-[(3-chloro-phenylcarbamoyl)-methyl]-N-(3-cyano-benzyl)-benzamide]

From patent publication US7589089B2, “Inhibitors for GlyT-1” (Hoffmann-La Roche Inc., priority 2006, dated 2009)
